Data as given in paper PMC3914891, “Pentacyclic Nitrofurans with In Vivo Efficacy and Activity against Nonreplicating Mycobacterium tuberculosis” (PLoS ONE, 2014).
Converted amounts (≈) assume the structure as drawn.

What was measured:
[1] = test system: 9a resistant clones of M. tuberculosis H37Rv; assay: microbe, parasite or virus in culture; assay type: cell-based, Mycobacterium tuberculosis
H37Rv-14A1 = assay type: cell-based, M. tuberculosis
H37Rv-5A1 = assay type: cell-based, M. tuberculosis
H37Rv-T3 = assay type: cell-based, M. tuberculosis
M. tuberculosis H37Rv = assay type: cell-based, Mycobacterium tuberculosis

Row | Structure (SMILES) | sensitivity of 9a resistant clones to the drug [1] | Cross resistance profile, Clone # 1 [1] | Cross resistance profile, Clone # 2 [1] | Cross resistance profile, Clone # 3 [1] | Cross resistance profile, Clone # 4 [1] | Cross resistance profile, Clone # 5 [1] | Cross resistance profile, Clone # 6 [1] | Cross resistance profile, Clone # 7 [1] | Cross resistance profile, Clone # 8 [1] | Cross resistance profile, Clone # 9 [1] | Cross resistance profile, Parent [1] | further results
1 | NNC(=O)c1ccncc1 [Isoniazid] | retained sensitivity |  |  |  |  |  |  |  |  |  |  | 
2 | O=[N+]([O-])c1ccc(C2=NOC(c3ccc(N4CCOCC4)cc3)C2)o1 (stereo not drawn) [Compound 2] |  | R | R | R | R | R | R | R | R | R | S | 
3 | CC[C@@H](CO)NCCN[C@@H](CC)CO [Ethambutol] | retained sensitivity |  |  |  |  |  |  |  |  |  |  | 
4 | CC1COc2c(N3CCN(C)CC3)c(F)cc3c(=O)c(C(=O)O)cn1c23 (stereo not drawn) [ofloxacin] | retained sensitivity |  |  |  |  |  |  |  |  |  |  | 
5 | [H]/N=C(/N)N[C@H]1[C@H](O)[C@@H](O)[C@H](O[C@@H]2O[C@@H](C)[C@](O)(C=O)[C@H]2O[C@@H]2O[C@@H](CO)[C@H](O)[C@@H](O)[C@@H]2NC)[C@@H](N/C(N)=N\[H])[C@@H]1O [Streptomycin] | retained sensitivity |  |  |  |  |  |  |  |  |  |  | 
6 | C[C@]1(COc2ccc(N3CCC(Oc4ccc(OC(F)(F)F)cc4)CC3)cc2)Cn2cc([N+](=O)[O-])nc2O1 [OPC-67683] |  | S | S | S | S | R | S | S | S | S | S | 
7 | CC(=O)NC[C@H]1CN(c2ccc(N3CCOCC3)c(F)c2)C(=O)O1 [Linezolid] | retained sensitivity |  |  |  |  |  |  |  |  |  |  | 
8 | CO[C@H]1/C=C/O[C@@]2(C)Oc3c(C)c(O)c4c(O)c(c(/C=N/N5CCN(C)CC5)c(O)c4c3C2=O)NC(=O)/C(C)=C\C=C\[C@H](C)[C@H](O)[C@@H](C)[C@@H](O)[C@@H](C)[C@H](OC(C)=O)[C@@H]1C [Rifampin] | retained sensitivity |  |  |  |  |  |  |  |  |  |  | 
9 | O=[N+]([O-])c1cn2c(n1)OC[C@@H](OCc1ccc(OC(F)(F)F)cc1)C2 [PA-824] |  | S | S | S | S | R | S | S | S | S | S | MIC (H37Rv-14A1): 50 µg/mL (≈ 139 µM); MIC (H37Rv-5A1): 50 µg/mL (≈ 139 µM); MIC (H37Rv-T3): 100 µg/mL (≈ 278 µM)
10 | O=[N+]([O-])c1ccc(C2=NOC(c3ccc(N4CCC(Oc5ccc(OC(F)(F)F)cc5)CC4)cc3)C2)o1 (stereo not drawn) [Compound 9a, 3-(5-Nitrofuran-2-yl)-5-(4-(4-(4-(trifluoromethoxy)phenoxy)piperidin-1-yl)phenyl)-4,5-dihydroisoxazole] |  | R | R | R | R | R | R | R | R | R | S | MIC (H37Rv-14A1): 0.1 µg/mL (≈ 0.193 µM); MIC ([1]; Mycobacterium tuberculosis, H37RV): > 3.13 µg/mL; MIC (H37Rv-5A1): 0.05 µg/mL (≈ 0.0966 µM); frequency of spontaneous resistance (M. tuberculosis H37Rv): 3×10^−7; MIC (H37Rv-T3): 0.1 µg/mL (≈ 0.193 µM)
